Experimental data taken from patent US9597292B2, “Oral dosage forms of methyl hydrogen fumarate and prodrugs thereof” (XenoPort, Inc., priority 2012, dated 2017).

Legend:
Assay type in all cases: in vivo, human
[1] = Safety and tolerability, adverse events in single-dose food effect study (Example 8); conditions: for Feeling Hot (subjects reporting) / Flushing (subjects reporting): 12 subjects
Excerpt: (§1) Twenty-four healthy adult volunteers (males and females) participated in the study. Twelve of the subjects received a dosage form of Example 1, once in a fed condition and once in a fasted condition, with a two-week washout between treatments. Twelve other subjects received a dosage form of Example 2, once in a fed condition and once in a fasted condition, with a two-week washout between treatments. The fasted dosing was achieved by dosing the subject following an overnight fast while the fed dosing was achieved by dosing the subject after consuming a high fat-content breakfast.

[2] = Safety and tolerability, adverse events in single-dose food effect study (Example 15); conditions: for Feeling Hot (subjects reporting) / Flushing (subjects reporting): 12 subjects
Excerpt: (§2) Twelve healthy adult volunteers (males and females) participated in the study. All twelve subjects received a dosage form of Example 9, once in a fed condition and once in a fasted condition, with a two-week washout between treatments. The fasted dosing was achieved by dosing the subject following an overnight fast while the fed dosing was achieved by dosing the subject after consuming a high fat-content breakfast.

[3] = Single-dose food effect pharmacokinetic study in healthy adult subjects (Example 8); conditions: promoiety after oral dosing of Example 2 formulation
Excerpt: as §1
(§3) Urine samples were collected from all subjects prior to dosing, and complete urine output was obtained at the 0-4, 4-8, 8-12, 12-24, 24-36, 36-48, 48-72, 72-96 and 96-120 hour intervals after dosing. Blood samples were quenched immediately with acetonitrile and frozen.

[4] = Single-dose food effect pharmacokinetic study of sustained release dosage form in healthy adult subjects (Example 15); conditions: promoiety after oral dosing of the formulation
Excerpt: as §2, §3

[5] = single 200 mg oral dose, fed and fasted

half life of clearance from blood [3]	half life of clearance from blood [4]	SMILES	Feeling Hot (subjects reporting) ([1]; Fasted)	Flushing (subjects reporting) ([1]; Fasted)	Feeling Hot (subjects reporting) ([1]; Fed)	Flushing (subjects reporting) ([1]; Fed)	tolerability during the trial [1, 5]	Feeling Hot (subjects reporting) ([2]; Fasted)	Flushing (subjects reporting) ([2]; Fasted)	Feeling Hot (subjects reporting) ([2]; Fed)	Flushing (subjects reporting) ([2]; Fed)	tolerability during the trial [2, 5]
–	–	CCN(CC)C(=O)COC(=O)/C=C/C(=O)OC [(N,N-Diethylcarbamoyl)methyl methyl (2E)but-2-ene-1,4-dioate]	no subjects	No subjects	no subjects	One	well tolerated	no subjects	No subjects	no subjects	Two	well tolerated
around 3 hours	around 3 hours	CCN(CC)C(=O)CO [Promoiety]	–	–	–	–	–	–	–	–	–	–
